Structures can show the parent of a compound that is named as a salt. Where two headings read alike, the source gives them in different places.
Experiments:
[1] = test system: fibrin-induced microglia activation; assay: Image-based assay of fibrin-induced microglia activation (HTS and dose response); type: cell-based, rat; details: Rattus norvegicus, Microglia; for inhibition at 10 µM: read-out: Fibrin % inhibition
[2] = test system: LPS-induced microglia activation; assay: Image-based assay of LPS-induced microglia activation (HTS and dose response); type: cell-based, rat; details: Rattus norvegicus, Microglia; for inhibition at 10 µM: read-out: LPS % inhibition
[3] = test system: fibrin- and LPS-induced microglia activation; assay: cells; type: cell-based, rat; details: for inhibition at 10 µM: Rattus norvegicus
primary rat microglia [4] = details: rat
primary rat microglia [5] = details: rat; remark: listed apart in the source
in vitro [6] = details: rat, Cell Toxicity IC50 (uM) [cFib assay]
in vitro [7] = details: rat
[8] = Microglia, read-out: Cherry-picked Hit (Suppl. Table 7)
[9] = read-out: Fibrin IC50 (uM) (Suppl. Table 7)
[10] = read-out: LPS IC50 (uM) (Suppl. Table 7)
[11] = 48 h, Table 1, dose response 0.001-20 μM, triplicates, primary rat microglia, 48 h, read-out: Fibrin IC50
[12] = dose response, fibrin-induced microglia activation, read-out: Fibrin IC50
[13] = fibrin-induced microglia activation, dose response, read-out: Fibrin IC50 (uM) (Suppl. Table 7)
[14] = primary microglia HTS, fibrin stimulation, increased cell size (>800 μm^2) as marker of activation
[15] = 48 h, Table 1, dose response 0.001-20 μM, triplicates, primary rat microglia, 48 h, read-out: LPS IC50
[16] = 48 h, primary microglia HTS, LPS stimulation, increased cell size (>800 μm^2) as marker of activation
[17] = LPS-induced microglia activation, dose response, read-out: LPS IC50 (uM) (Suppl. Table 7)
[18] = dose response, LPS-induced microglia activation, read-out: LPS IC50
[19] = HTS of 1907 compounds, quadrant by fibrin and LPS inhibition
[20] = Microglia, HTS hit classification, read-out: Hit
[21] = hit classification in microglia HTS, read-out: Cherry-picked Hit (Suppl. Table 7)
[22] = quadrant by fibrin and LPS inhibition in HTS of 1907 compounds
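Throughout, for Fibrin % cell toxicity: share of dead cells sized under 150 µm2 at 10 µM in fibrin-stimulated microglia HTS.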

Row | Compound | inhibition at 10 µM [1] [%] | inhibition at 10 µM ([2]; 48 h) [%] | Quadrant (FIG. 5b) [3] | Fibrin % cell toxicity (primary rat microglia [4]) [%] | LPS % cell toxicity (primary rat microglia [5]) [%] | IC50 (in vitro [7]) [µM] | IC50 [1, 11] [µM] | IC50 [1, 12] [µM] | IC50 [1, 13] [µM] | inhibition at 10 µM [1, 14] [%] | IC50 [2, 15] [µM] | inhibition at 10 µM [2, 16] [%] | IC50 [2, 17] [µM] | IC50 [2, 18] [µM] | Quadrant (FIG. 5b) [3, 19] | inhibition at 10 µM [3, 20] [%] | inhibition at 10 µM [3, 21] [%] | Quadrant (FIG. 5b) ([3]; Table 1, screen at 10 μM) | Quadrant (FIG. 5b) [3, 22] | IC50 (in vitro [6]; cFib assay) [µM] | other results
1 | Clc1ccc(COC(Cn2ccnc2)c2ccc(Cl)cc2Cl)c(Cl)c1 (centres unmarked) [Miconazole nitrate, reference compound] | 53 | 23 | Q3 | 1 | 0 | > 20 |  |  |  |  |  |  |  |  |  |  |  |  |  |  | inhibition at 10 µM [3, 8]: > 50%; inhibition at 10 µM ([3]; Microglia, read-out: Hit): > 50%; IC50 (in vitro [6]): > 20 µM
2 | COc1ccc(OC)c(C(O)CNC(=O)CN)c1 (centres unmarked) [Midodrine hydrochloride, reference compound] | 95 | 52 | Q2 | 3 | 1 | > 20 |  |  |  |  |  |  |  |  |  |  |  |  |  |  | IC50 ([1]; 48 h, read-out: Fibrin IC50): > 20 µM; IC50 ([1]; read-out: Fibrin IC50 (uM)): > 20 µM; IC50 [1, 9]: > 20 µM; IC50 ([2]; 48 h, read-out: LPS IC50): > 20 µM; IC50 ([2]; read-out: LPS IC50 (uM)): > 20 µM; IC50 [2, 10]: > 20 µM; inhibition at 10 µM [3, 8]: > 50%; inhibition at 10 µM ([3]; Microglia, read-out: Hit): > 50%; IC50 (in vitro [6]): > 20 µM
3 | CNCCC=C1c2ccccc2CCc2ccccc21 [Nortriptyline hydrochloride, reference compound] | 98 | 114 | Q2 | 2 | 81 | 10 |  |  |  |  |  |  |  |  |  |  |  |  |  |  | IC50 ([1]; 48 h, read-out: Fibrin IC50): 13 µM; IC50 ([1]; read-out: Fibrin IC50 (uM)): 13 µM; IC50 [1, 9]: 13 µM; IC50 ([2]; 48 h, read-out: LPS IC50): 3 µM; IC50 ([2]; read-out: LPS IC50 (uM)): 3 µM; IC50 [2, 10]: 3 µM; inhibition at 10 µM [3, 8]: > 50%; inhibition at 10 µM ([3]; Microglia, read-out: Hit): > 50%; IC50 (in vitro [6]): 20 µM
4 | C1CCC(C(CC2CCCCN2)C2CCCCC2)CC1 (centres unmarked) [Perhexiline maleate, reference compound] |  |  |  | 3 | 69 | 11 | 8 | 8 | 8 | 99 | 3 | 123 | 3 | 3 | Q2 | > 50 | > 50 | Q2 | Q2 | 20 | 
5 | O=C1NC(=O)C(c2ccccc2)(c2ccccc2)N1 [Phenytoin sodium, reference compound] |  |  |  | 1 | 1 | > 20 | > 20 | > 20 | > 20 | 82 | > 20 | 63 | > 20 | > 20 | Q2 | > 50 | > 50 | Q2 | Q2 | > 20 | 
6 | O=c1[nH]c2ccccc2n1C1CCN(CCCC(c2ccc(F)cc2)c2ccc(F)cc2)CC1 [Pimozide, reference compound] |  |  |  | 2 | 0 | > 20 | > 20 | > 20 | > 20 | 70 | 18 | 45 | 18 | 18 | Q3 | > 50 | > 50 | Q3 | Q3 | > 20 | 
7 | CO[C@H]1C[C@@H]2CC[C@@H](C)[C@@](O)(O2)C(=O)C(=O)N2CCCC[C@H]2C(=O)O[C@H]([C@H](C)C[C@@H]2CC[C@@H](O)[C@H](OC)C2)CC(=O)[C@H](C)/C=C(\C)[C@@H](O)[C@@H](OC)C(=O)[C@H](C)C[C@H](C)/C=C/C=C/C=C/1C [Rapamycin, reference compound] |  |  |  | 3 | 2 | > 20 | < 0.001 | < 0.001 | < 0.001 | 86 | < 0.001 | 53 | < 0.001 | < 0.001 | Q2 | > 50 | > 50 | Q2 | Q2 | > 20 | 
